# Measured values from a melting point compilation (Tetko et al.; mined from patent text by program, amines drawn as free bases though some values may be those of a salt).
row,melting point,Structure (SMILES)
1,201 to 203 °C,O=CNC1CCN(c2ncc3ncnc(Nc4ccc(F)c(Cl)c4)c3n2)CC1
2,278 to 280 °C,CC(=O)NC12Oc3cc(C(C)C)ccc3C1(O)C(=O)c1c(N)cccc12 (stereo not drawn)
3,264 to 265 °C,COC(=O)N1CCN(c2n[nH]c(-c3ccc(Cl)cc3)c2-c2ccncc2)CC1
4,234 to 236 °C,COc1ccc(N2C[C@@H](COS(C)(=O)=O)OC2=O)cc1
5,152 °C,Cc1c(C=NO)c2ccccc2n1C(=O)c1ccc(Cl)cc1
6,105 to 106 °C,CC(=O)Nc1ccc(CN(C)C2CCOCC2)cc1
7,138 to 139 °C,CC(=O)NC12CCCC(C1)C1CCC2C1 (stereo not drawn)
8,116 to 118 °C,O=C(Cc1ccccc1)Nc1cc(Cl)c(Cl)cc1[N+](=O)[O-]
9,95 to 99 °C,NC1=NC(c2cccc(-c3cccnc3F)c2)(c2ccc3c(c2)OC(F)(F)O3)C2=NCCCN12 (stereo not drawn)
10,111 to 112 °C,CC(C)C(=O)C1(S(=O)(=O)c2ccc(O)cc2)CC1
11,> 245 °C,N#Cc1cnc2sc(I)cc2c1Nc1cccc2cc[nH]c12
12,142 to 143 °C,CCOc1nn(Cc2cc(OCc3nc(-c4ccccc4)oc3C)no2)cc1CCC(=O)O
13,54.5 °C,Cc1cc(N2CN=C(C(F)(F)F)O2)cc(C)c1OCCCc1ccc(C(C)(F)F)nn1
14,119 to 120 °C,O=C(CSc1nc[nH]n1)c1ccccc1
15,335 to 345 °C,O=C1NC(=O)c2c1cc(-c1ccccc1)c1[nH]c3ccc(O)cc3c21
16,190 °C,COc1ccc(I)c2c1CC(NC(C)=O)CC2 (stereo not drawn)

row,melting point,Structure (SMILES)
1,118 to 120 °C,Cc1ccccc1Nc1nc(N)nc2c(C)cccc12
2,144 to 146 °C,COc1ccc2c(NC(C)=O)c(C(=O)c3ccccc3)[nH]c2c1
3,69 to 70 °C,CN(C)CCCOc1ccc(-c2nnc(CSCCOc3ccccc3)o2)cn1
4,155 to 156 °C,O=C(N[C@H]1CCCNC1=O)c1ccccc1C(F)(F)F
5,213 °C,CCOc1ccccc1C1CC(C(C)(C)C)=NN1c1ccc(C(=O)O)cc1 (stereo not drawn)
6,42 to 45 °C,O=C(Cc1ccccc1)c1ccc(SC(F)F)cc1
7,149 to 151 °C,CS(=O)(=O)c1ccc(-c2cnn(CC(F)(F)F)c(=O)c2SC2CCCC2)cc1
8,161 to 162 °C,COc1cc(Nc2nccc(-c3ccc(OCCCN)cc3)n2)cc(OC)c1OC
9,136 to 138 °C,C=CC(=O)NC(Cc1ccccc1)C(=O)O (stereo not drawn)
10,325 to 329 °C,CCc1nc(C)c(CC(=O)O)c(=O)n1Cc1ccc(-c2ccccc2-c2nnn[nH]2)cc1
11,183 to 185 °C,CCc1cccc2c1C(=O)NS2(=O)=O
12,254 to 257 °C,C=Cn1cc(C(=O)O)c(=O)c2cc(F)c(-c3ccncc3)nc21
13,68 to 70 °C,COC(=O)c1cccc([N+](=O)[O-])c1Cl
14,29 to 31 °C,O=C(OCCCCCCCCCCCCBr)C1CC1
15,100 to 101 °C,NC(=O)Cc1cccc(OCCN2CCC(Cc3ccccc3)CC2)c1
16,174 to 176 °C,CN1CCN(C(=NNS(=O)(=O)c2ccccc2)c2ccc(Cl)cc2Cl)CC1

# Further lines, the compound ahead of its results:
row,Structure (SMILES),melting point
1,CCCCCCCC(=O)OCCc1c(-c2ccccc2)nc(NC(C)=O)n2ncnc12,69 to 70 °C
2,NCCCCC(OP(=O)(O)CCCCc1ccccc1)C(=O)N1CCCC1C(=O)O (stereo not drawn),160 to 175 °C
3,CC(C)=CCOc1c(-c2ccc(S(C)(=O)=O)cc2)cnn(-c2ccc(F)cc2)c1=O,128 to 132 °C
4,C=Cc1c(CS)cnc(C)c1O,130 to 140 °C
5,CCc1cccc(CC(=O)O)c1OCCn1cc(CCOc2ncc(C(F)(F)F)cc2Cl)c(OC(C)C)n1,76.5 to 77.5 °C
6,Cc1ccc(Oc2ccccc2-c2noc(=O)[nH]2)c(O)c1,213 to 214 °C
7,CN1CC=C(c2c[nH]c3ccc(NS(C)(=O)=O)cc23)CC1,210 to 214 °C
8,CN(Cc1ccc([N+](=O)[O-])cc1)C(CO)CO,65 to 66 °C
9,CCOC(=O)c1cnc2cc(N)ccc2n1,181 to 183 °C
10,CC(C)(Cn1c(CCO)nc2c(N)nc3ccccc3c21)NS(C)(=O)=O,209 to 212 °C
11,Cc1nc(-c2ccc(C(F)(F)F)cc2)ccc1CO,76 to 78 °C
12,O=P1(C2CCCC2)c2ccccc2CN1c1ccccc1 (stereo not drawn),123 to 125 °C
13,O=C(Nc1ccccc1Cl)C1CN(C(=O)Nc2ccc(C(F)(F)F)cc2)N=C1c1ccc(Cl)cc1 (stereo not drawn),> 200 °C
14,COc1ccc(COc2cccnc2NC(=S)Nc2ccc(Cl)cc2)c(F)c1,138 to 140 °C
15,CC(C)(O)C(=O)c1ccc(C(O)c2ccc(C(=O)C(C)(C)O)cc2)cc1,130 °C
16,COc1ccc(/C=C/c2ccc3nc(C(=O)N[C@@H](Cc4ccc(OCc5ccccc5)cc4)C(=O)O)cn3c2)cc1,262 to 263 °C
17,CCCCCCCCCCCCC1=CC(=O)c2c(Cl)cccc2C1=O,57.5 to 58.5 °C
18,O=C(CCCc1cccs1)N[C@H](Cc1ccc(C(F)(F)F)cc1)[C@@H](O)c1cccc2ccccc12 (racemic),139 to 140 °C
19,Cc1c(Cl)c(Cl)c(Cl)c(CCl)c1Cl,88 to 89 °C
20,O=c1[nH]c(-c2ccccc2)nc(-c2ccncc2)c1Br,> 300 °C
21,CS(=O)(=O)CC(=O)c1[nH]c2cc(Br)c(Cl)cc2c1-c1ccccc1,224 to 225 °C
22,O=C1COCC(=O)N1CCCCCCN1CCCCC1,121 to 122 °C
23,COc1cc(C=CC(=O)c2cc(OC)c(OC)c(OC)c2)cc(C(F)(F)F)c1O,190 to 192 °C
24,O=C(Oc1ccc(OC(=O)c2ccc(O)c(O)c2)c2ccccc12)c1ccc(O)c(O)c1,261 °C

row,Structure (SMILES),melting point
1,Cn1c(C(F)(F)F)cc(=O)n(-c2cc(N)c(Cl)cc2F)c1=O,132 to 135 °C
2,O=C(O)C(=O)c1ccc(OCCCCCCCCCCCCOc2ccccc2)cc1,98 to 100 °C
3,O=C(O)c1ccc(COCc2csc3nc(C(=O)NCc4cccc(Cl)c4)[nH]c(=O)c23)cc1,236 to 238 °C
4,OC1(c2ccc(C(F)(F)F)cc2)CCN(Cc2ccccc2)CC1,115 to 117 °C
5,CCCc1nc2c(N)nc3cc(-c4ccccc4)ccc3c2n1CCCC(C)=NOC,191 to 192 °C
6,CCOC(=O)Cc1nc(Cl)c(Cl)s1,63 °C
7,CN(C(=O)CCS(C)(=O)=O)c1nnc(-c2cccnc2)s1,199 to 201 °C
8,COCCOc1ccc2c(C3C(=O)Nc4ccc(C#N)cc43)nccc2c1 (stereo not drawn),214 to 219 °C
9,"CCC(=O)OC(C)c1ccc(-c2ccc(O)cc2)cc1 (single isomer, unassigned; (+))",133 to 135 °C
10,NC(=O)N(O)Cc1ccc(OCc2csc(-c3ccccc3)n2)cc1,161 to 164 °C
11,CC(CN1CCCC1)N1c2ccc(Cl)cc2Sc2ccc(C3=NC4CCCCC4N3)cc21 (racemic),120 °C
12,O=c1ccc(-c2ccccc2O)n[nH]1,289 to 302 °C
13,COc1ccc2c(c1)C=C(C(=O)N1CCN(C(=O)c3cc(OC)c(OC)c(OC)c3)CC1)CCO2,110 to 115 °C
14,CC(C)(CO)Nc1nc(-c2ccc(Br)cc2)cs1,151 to 153 °C
15,CN(c1ncc(Br)cn1)[C@H]1CC[C@H](C#CCO)CC1,156 to 157 °C
16,CC(=NNC(=S)N1CCCCCC1)c1ccc2ccccc2n1,129 to 131 °C
17,CCOC(=O)c1cc(OCCC2CCN(c3ccc(Cl)nn3)CC2)cs1,112 °C
18,CCOC(=O)C(=O)NNC(=O)c1cc2sc(C)c(N(C)S(=O)(=O)c3cccs3)c2[nH]1,135 °C
19,Nc1ccc(Sc2cc(I)nc(I)c2)cc1,175 to 176 °C
20,COC(=O)/C=C/c1cccc(OCCCCCOC(C)=O)c1,65 to 67 °C
21,CC(C)(C)C(=O)Oc1ccc2nc(S(N)(=O)=O)sc2c1,167 °C
22,CC(C)(C)NC(=O)[C@H](Cc1ccc(OCc2c(Cl)cccc2Cl)cc1)NC(=O)OC(C)(C)C,82 to 86 °C
23,Fc1ccc(-c2ncn(C3CCNCC3)c2-c2ccnc(Oc3ccc(OCc4ccccc4)cc3)n2)cc1,178 to 179 °C
24,O=Cc1c2ccccc2c(C=O)c2c1ccc1ccccc12,197 to 198 °C

row,Structure (SMILES),melting point
1,C=C(COc1ccc(C(=O)CCC(=O)OC)cc1)COc1ccc(C(C)=O)c(O)c1CCC,89 to 90 °C
2,C=C1c2cnccc2CC(=O)c2ccccc21,98 to 110 °C
3,Cn1c(=O)oc2c(OC3CCCCO3)cccc21 (stereo not drawn),128 to 129 °C
4,O=C(O)Cc1cnc2c(NC(=O)c3c(Cl)cccc3Cl)cccc2c1,> 250 °C
5,CC(C(=O)O)c1ccc2c(c1)CCc1cccnc1O2 (stereo not drawn),182 to 184 °C
6,O=S(=O)(Nc1ccc2ccc(OCc3ccc4ccccc4n3)cc2c1)C(F)(F)F,172 to 175 °C
7,OOC12C=CC=CC=CC=CC=CC1=CC=CO2 (stereo not drawn),104 to 106 °C
8,CCCCCCCC(=O)C=Cc1ccc(O)c(OC)c1,45 °C
9,c1ccc(OCCN2CCN(Cc3c[nH]c4ncccc34)CC2)cc1,143 °C
10,CCCNC(=O)Nc1c(C(=O)OCC)cnn1-c1ccccc1,117 to 118 °C
11,CCN(CC)C(=O)CCCC1CCN(Cc2cnc3c(C)c(NC(=O)c4ccc(-c5ccc(F)cc5)cc4)ccc3c2)CC1,145 to 146 °C
12,COc1ccc(CN=C(Cc2ccccc2)N2CC3C(=O)CCC(c4ccccc4)(c4ccccc4)C3C2)cc1 (stereo not drawn),158 °C
13,CC(=O)OC1CSC(Oc2ccccc2-c2ccncc2)C(OC(C)=O)C1OC(C)=O (stereo not drawn),165 °C
14,Cc1nnc(CCl)n1-c1ccc(Cl)cc1C(=O)c1ccccc1,139 to 140 °C
15,COC(=O)C1=C(Cc2ccccc2)C(=O)NCC1,104 to 108 °C
16,CNC(=NCCSCc1cnc(C)[nH]1)NC#N,141 to 142 °C
17,CC1(C)C2CC3CCC(=O)OC3C1C2 (stereo not drawn),57 to 60 °C
18,CCN1CNS(=O)(=O)c2cc(Oc3cccc(C(C)O)c3)ccc21 (stereo not drawn),60 °C
19,CCOCOc1cc(C)ccc1-c1cc(-c2cccc([N+](=O)[O-])c2)c(C#N)c(NC(=O)c2cccs2)n1,121 to 123 °C
20,CCCC1=C(C#N)C(c2ccccc2Cl)c2c(n[nH]c2CCC)N1 (stereo not drawn),237 °C
21,COc1ccc(C=C(C#N)C=O)cc1OC,157 to 158 °C
22,COC(=O)c1ccc(-c2ccccc2)cc1S(=O)(=O)NC(=O)Nc1nc(OC)cc(OC)n1,204 to 206 °C
23,O=Cc1cc2ccccc2n1-c1cccnc1,101 to 103 °C
